Results on 22 compounds are retold here after patent US8680139B2 (Progenra, priority 2009, dated 2014).

A short description of series [1]: HCT-116 Cellular Cytotoxicity Assay. The settings on record: human, HCT-116 cells, pH 7.2.
Description: The purpose of this assay is to determine if any of the synthesized compounds are cytotoxic against HCT-116 cells, as measured by resazurin metabolism. Resazurin is metabolized only by living cells from a non-fluorescent molecule into Resorufin, a highly red fluorescent dye. […] The cells were cultured in an incubator at 37° C. in 5% CO2 and 95% humidified air. […] The final concentration DMSO was 0.5% (v/v) in all samples. The plates were returned to the incubator for 72 hours. Following 72 hours of test compound exposure, 10 μL of 0.2 mg/mL Resazurin (Sigma) in phosphate buffered saline was added to each well and the plate was returned to the incubator for 3-6 hours. Since living cells metabolize Resazurin, the fluorescence of the reduction product of Resazurin was measured using a microplate fluorometer with λex=531 nm and λem=590 nm filters. Resazurin dye in medium without cells was used to determine the background, which was subtracted from the data for all experimental wells.
For a further series, the target named is T1, USP7 (Homo sapiens, UniProt Q93009).
T1 construct: full length human USP7 protein; made in house
Nature of the series: USP7, Ub-PLA2 assay. The format is biochemical. The conditions noted are these: for USP7 inhibition, result in words: USP7, Ub-PLA2 assay; for EC50: Ub-PLA2 / NBD C6-HPC fluorescence, 30 minute preincubation, read-out: EC50 for inhibition of USP7. Summed up:
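Compounds tested against USP7 with DMSO vehicle control and NEM-treated wells as background. Fluorescence (RFU) read-out; % inhibition normalized per plate to mean DMSO and NEM controls.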

Bounds are passed on as bounds.

T1 sequence (Q93009 whole entry): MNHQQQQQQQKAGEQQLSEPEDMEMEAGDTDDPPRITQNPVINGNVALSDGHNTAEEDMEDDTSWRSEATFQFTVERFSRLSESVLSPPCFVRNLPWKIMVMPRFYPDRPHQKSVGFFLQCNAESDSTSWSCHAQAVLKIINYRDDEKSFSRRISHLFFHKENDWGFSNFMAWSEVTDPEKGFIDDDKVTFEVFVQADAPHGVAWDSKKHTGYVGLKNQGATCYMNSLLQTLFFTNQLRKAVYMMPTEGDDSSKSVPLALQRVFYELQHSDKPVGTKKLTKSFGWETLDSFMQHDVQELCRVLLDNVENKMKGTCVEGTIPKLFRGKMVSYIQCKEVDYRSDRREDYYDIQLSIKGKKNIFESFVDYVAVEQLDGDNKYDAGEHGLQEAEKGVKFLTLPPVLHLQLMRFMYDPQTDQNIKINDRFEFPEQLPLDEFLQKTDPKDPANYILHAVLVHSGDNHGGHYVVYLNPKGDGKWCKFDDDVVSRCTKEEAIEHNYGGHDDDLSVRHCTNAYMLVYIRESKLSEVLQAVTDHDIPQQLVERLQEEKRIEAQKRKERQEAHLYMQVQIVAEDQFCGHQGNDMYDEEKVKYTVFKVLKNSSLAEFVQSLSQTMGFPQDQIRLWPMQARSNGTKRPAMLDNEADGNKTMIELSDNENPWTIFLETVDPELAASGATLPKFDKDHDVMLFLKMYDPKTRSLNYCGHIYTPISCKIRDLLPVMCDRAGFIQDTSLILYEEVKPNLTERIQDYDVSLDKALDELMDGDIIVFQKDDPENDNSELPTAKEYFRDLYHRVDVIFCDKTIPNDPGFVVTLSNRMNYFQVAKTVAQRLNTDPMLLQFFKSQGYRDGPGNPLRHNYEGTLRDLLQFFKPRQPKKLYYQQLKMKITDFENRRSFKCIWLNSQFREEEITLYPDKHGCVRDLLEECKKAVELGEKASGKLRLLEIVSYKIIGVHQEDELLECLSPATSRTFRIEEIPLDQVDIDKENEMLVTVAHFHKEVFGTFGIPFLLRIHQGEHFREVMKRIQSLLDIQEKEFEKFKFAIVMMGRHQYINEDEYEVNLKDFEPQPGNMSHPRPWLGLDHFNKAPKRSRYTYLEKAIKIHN

In the case of `O=C(Nc1cnc2ccccc2c1)c1cc([N+](=O)[O-])c(Sc2c(Cl)cncc2Cl)s1` [Example 173, 5-((3,5-dichloropyridin-4-yl)thio)-4-nitro-N-(quinolin-3-yl)thiophene-2-carboxamide], in series [1], the midpoint of the response, the EC50 at 72 h, lay at 5.15 µM. In addition, at USP7, the “USP7 inhibition, result in words” value is “Particularly good results” and the EC50 was no more than 1 µM.
The compound `CC(=O)c1cc([N+](=O)[O-])c(Sc2ccc(Cl)cc2Cl)s1` [Example 2, 1-[5-(2,4-Dichlorophenylsulfanyl)-4-nitro-2-thienyl]ethanone] returned an EC50 at 72 h in series [1] of 16.1 µM. For the same compound, the EC50 on USP7 is 1 to 10 µM.
The like results for `O=C(Nc1ccon1)c1cc([N+](=O)[O-])c(Sc2c(Cl)cncc2Cl)s1` [Example 171, 5-((3,5-dichloropyridin-4-yl)thio)-N-(isoxazol-3-yl)-4-nitrothiophene-2-carboxamide] were, in that order, 10.9 µM and no more than 1 µM.
The corresponding values for `CN(C)CCC(=O)c1cc([N+](=O)[O-])c(Sc2ccc(Cl)cc2Cl)s1` [Example 24, 1-[5-(2,4-dichlorophenyl)sulfanyl-4-nitro-2-thienyl]-3-dimethylamino-propan-1-one] are 27.3 µM and 1 to 10 µM.
The corresponding values for `O=C(Nc1cccc2cnccc12)c1cc([N+](=O)[O-])c(Sc2c(Cl)cncc2Cl)s1` [Example 179, 5-((3,5-dichloropyridin-4-yl)thio)-N-(isoquinolin-5-yl)-4-nitrothiophene-2-carboxamide] are 4.23 µM and no more than 1 µM.
In turn, `O=C(Nc1cc(C2CC2)n[nH]1)c1cc([N+](=O)[O-])c(Sc2c(Cl)cncc2Cl)s1` [Example 123, N-(3-cyclopropyl-1H-pyrazol-5-yl)-5-((3,5-dichloropyridin-4-yl)thio)-4-nitrothiophene-2-carboxamide] returned an EC50 at 72 h in series [1] of 11 µM. On USP7, the “USP7 inhibition, result in words” value is reported as “Particularly good results” and the EC50 was no more than 1 µM.
For `CC(=O)c1cc([N+](=O)[O-])c(Sc2cc(Cl)cc(Cl)c2)s1` [Example 9, 1-[5-(3,5-Dichlorophenylsulfanyl)-4-nitro-2-thienyl]ethanone], the EC50 at 72 h in series [1] amounted to 8.13 µM. Moreover, the EC50 at USP7 fell in the range of 1 to 10 µM.
The corresponding values for `O=C(Nc1ccc(N2CCOCC2)cc1)c1cc([N+](=O)[O-])c(Sc2c(Cl)cncc2Cl)s1` [Example 157, 5-((3,5-dichloropyridin-4-yl)thio)-N-(4-morpholinophenyl)-4-nitrothiophene-2-carboxamide] are 27.3 µM and no more than 1 µM.
The like results for `Cc1cc(NC(=O)c2cc([N+](=O)[O-])c(Sc3c(Cl)cncc3Cl)s2)n(CCN(C)C)n1` [Example 182, 5-((3,5-dichloropyridin-4-yl)thio)-N-(1-(2-(dimethylamino)ethyl)-3-methyl-1H-pyrazol-5-yl)-4-nitrothiophene-2-carboxamide] were, in that order, 14.3 µM and no more than 1 µM.
The corresponding values for `COc1ccc(NC(=O)c2cc([N+](=O)[O-])c(Sc3c(Cl)cncc3Cl)s2)cn1` [Example 175, 5-((3,5-dichloropyridin-4-yl)thio)-N-(6-methoxypyridin-3-yl)-4-nitrothiophene-2-carboxamide] are 7.23 µM and no more than 1 µM.
Compound `CC(=O)c1cc([N+](=O)[O-])c(Sc2c(Cl)cccc2Cl)s1` [Example 7, 1-[5-(2,6-Dichlorophenylsulfanyl)-4-nitro-2-thienyl]ethanone] displayed an EC50 at 72 h in series [1] of 30.6 µM. The EC50 on USP7 is 1 to 10 µM.
The like results for `CN1C(C)(C)CC(NC(=O)c2cc([N+](=O)[O-])c(Sc3c(Cl)cncc3Cl)s2)CC1(C)C` [Example 188, 5-((3,5-dichloropyridin-4-yl)thio)-4-nitro-N-(1,2,2,6,6-pentamethylpiperidin-4-yl)thiophene-2-carboxamide] were, in that order, 7.9 µM and no more than 1 µM.
The like results for `CN(C)CCOc1ccc(NC(=O)c2cc([N+](=O)[O-])c(Sc3c(Cl)cncc3Cl)s2)cc1` [Example 192, 5-((3,5-dichloropyridin-4-yl)thio)-N-(4-(2-(dimethylamino)ethoxy)phenyl)-4-nitrothiophene-2-carboxamide] were, in that order, 4.9 µM and no more than 1 µM.
The corresponding values for `CC(=O)c1cc([N+](=O)[O-])c(Sc2ccc(Cl)c(Cl)c2)s1` [Example 8, 1-[5-(3,4-Dichlorophenylsulfanyl)-4-nitro-2-thienyl]ethanone] are 14.8 µM and 1 to 10 µM.
With `CN1CCC(NC(=O)c2cc(C#N)c(Sc3c(Cl)cncc3Cl)s2)CC1` [Example 203, 4-cyano-5-((3,5-dichloropyridin-4-yl)thio)-N-(1-methylpiperidin-4-yl)thiophene-2-carboxamide], a half-maximal response in series [1] (EC50 at 72 h) required 10.4 µM. Also, the EC50 at USP7 was in the range of 1 to 10 µM.
With `CS(=O)(=O)c1ccc(NC(=O)c2cc([N+](=O)[O-])c(Sc3c(Cl)cncc3Cl)s2)cc1` [Example 129, 5-((3,5-dichloropyridin-4-yl)thio)-N-(4-(methylsulfonyl)phenyl)-4-nitrothiophene-2-carboxamide], the EC50 at 72 h in series [1] came out at 5.89 µM. On USP7, the “USP7 inhibition, result in words” value is recorded as “Particularly good results” and the EC50 was no more than 1 µM.
Turning to `NS(=O)(=O)c1ccc(NC(=O)c2cc([N+](=O)[O-])c(Sc3c(Cl)cncc3Cl)s2)cc1` [Example 160, 5-((3,5-dichloropyridin-4-yl)thio)-4-nitro-N-(4-sulfamoylphenyl)thiophene-2-carboxamide], the EC50 at 72 h in series [1] turned out to be 6.17 µM. For the same compound, the EC50 on USP7 was no more than 1 µM.
The like results for `CN(C)CCNc1ccc(NC(=O)c2cc([N+](=O)[O-])c(Sc3c(Cl)cncc3Cl)s2)cn1` [Example 238, 5-((3,5-dichloropyridin-4-yl)thio)-N-(6-((2-(dimethylamino)ethyl)amino)pyridin-3-yl)-4-nitrothiophene-2-carboxamide] were, in that order, 3.96 µM and no more than 1 µM.
In the case of `COc1ccc(NC(=O)c2cc([N+](=O)[O-])c(Sc3c(Cl)cncc3Cl)s2)cc1` [Example 155, 5-((3,5-dichloropyridin-4-yl)thio)-N-(4-methoxyphenyl)-4-nitrothiophene-2-carboxamide], the response in series [1] was half-maximal at 5.49 µM (EC50 at 72 h). Moreover, on USP7, the “USP7 inhibition, result in words” value is recorded as “Particularly good results” and the EC50 is no more than 1 µM.
With `O=C(Nc1nccs1)c1cc([N+](=O)[O-])c(Sc2c(Cl)cncc2Cl)s1` [Example 172, 5-((3,5-dichloropyridin-4-yl)thio)-4-nitro-N-(thiazol-2-yl)thiophene-2-carboxamide], the response in series [1] was half-maximal at 12.9 µM (EC50 at 72 h). The EC50 at USP7 was no more than 1 µM.
In series [1], `Cc1cnc(CNC(=O)c2cc([N+](=O)[O-])c(Sc3c(Cl)cncc3Cl)s2)cn1` [Example 103, 5-((3,5-dichloropyridin-4-yl)thio)-N-((5-methylpyrazin-2-yl)methyl)-4-nitrothiophene-2-carboxamide] showed an EC50 at 72 h of 7.18 µM. Also, on USP7, the EC50 is no more than 1 µM.
The like results for `CC(=O)c1cc([N+](=O)[O-])c(Oc2ccc(Cl)cc2Cl)s1` [Example 271, 1-(5-(2,4-dichlorophenoxy)-4-nitrothiophen-2-yl)ethanone] were, in that order, 8.54 µM and 1 to 10 µM.

One may read the EC50 as the concentration at which the effect is half-maximal.
